Data published in BindingDB's records for doi:10.1016/j.bmcl.2005.06.067 (Carlsson Research, 2005).

Experiments:
[1] = Inhibitory activity against 5-hydroxytryptamine 1D receptor in calf
[2] = as above; remark: listed apart in the source

**Q.** For CCc1[nH]c2ccc(OC)cc2c1CCN(C)C [2-ethyl-5-methoxy-N,N-dimethyltryptamine], which IC50 [1] is on record?
**A.** 1400 nM

**Q.** For COc1ccc2[nH]c(C)c(C3=CCNCC3)c2c1 [5-Methoxy-2-methyl-3-(1,2,3,6-tetrahydro-pyridin-4-yl)-1H-indole], which IC50 [2] is on record?
**A.** > 1000 nM
